Data on nine compounds can be found in US8227422B2, “Peptides and compounds that bind to a receptor” (Glaxosmithkline LLC, priority 1996, dated 2012).

Test [1] deals with T1, TPO-R (Homo sapiens, UniProt P40238).
T1 construct: made in house
T1 sequence (P40238 26-491 limits assumed): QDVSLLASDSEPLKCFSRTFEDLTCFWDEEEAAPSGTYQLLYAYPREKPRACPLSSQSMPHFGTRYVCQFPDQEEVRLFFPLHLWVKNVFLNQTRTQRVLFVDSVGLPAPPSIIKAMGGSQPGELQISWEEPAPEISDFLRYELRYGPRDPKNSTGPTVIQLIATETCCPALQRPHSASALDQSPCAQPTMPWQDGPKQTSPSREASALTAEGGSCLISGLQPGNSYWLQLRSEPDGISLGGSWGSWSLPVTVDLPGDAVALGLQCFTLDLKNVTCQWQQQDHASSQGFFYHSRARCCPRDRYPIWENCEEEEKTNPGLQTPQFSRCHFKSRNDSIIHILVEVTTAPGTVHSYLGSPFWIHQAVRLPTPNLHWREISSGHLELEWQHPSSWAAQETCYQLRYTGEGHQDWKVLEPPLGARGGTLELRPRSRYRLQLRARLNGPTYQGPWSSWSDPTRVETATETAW
The test is described as follows: Competition binding assay (equilibrium binding ELISA, MBP-TPO156 tracer) on immobilized TPO-R. The following applies: read-out: IC50. Background: In an ELISA, binding on a coated surface is turned into a signal by an enzyme label.

For test [2], the target named is T2, TPO receptor (Homo sapiens, UniProt P40238).
T2 sequence (P40238 26-635): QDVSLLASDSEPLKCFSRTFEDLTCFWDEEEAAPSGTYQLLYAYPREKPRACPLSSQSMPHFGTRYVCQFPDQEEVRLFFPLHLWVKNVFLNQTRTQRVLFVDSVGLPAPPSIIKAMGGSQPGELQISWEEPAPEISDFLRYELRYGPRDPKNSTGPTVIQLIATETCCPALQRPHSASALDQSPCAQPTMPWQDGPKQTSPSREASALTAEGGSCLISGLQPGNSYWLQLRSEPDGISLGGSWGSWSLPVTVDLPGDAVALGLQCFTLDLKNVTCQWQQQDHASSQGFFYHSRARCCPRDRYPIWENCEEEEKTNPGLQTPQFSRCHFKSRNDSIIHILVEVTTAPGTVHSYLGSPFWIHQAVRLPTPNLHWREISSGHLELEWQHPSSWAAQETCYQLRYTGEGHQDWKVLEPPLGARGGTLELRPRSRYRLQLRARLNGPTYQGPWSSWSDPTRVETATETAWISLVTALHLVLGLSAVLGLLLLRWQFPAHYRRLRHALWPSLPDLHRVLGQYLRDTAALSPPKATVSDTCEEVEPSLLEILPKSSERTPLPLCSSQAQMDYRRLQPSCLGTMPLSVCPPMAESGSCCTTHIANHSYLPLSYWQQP
The test is described as follows: Microphysiometer assay: rate of acidification of extracellular medium on TPO receptor stimulation. Type of test: cell-based.
Procedure: In this example cyclized compounds were subjected to three assays. […] Finally, a microphysiometer (Molecular Devices Corp.) assay was performed. […] The ranges for EC50 are symbolically indicated as for IC50 described above.

For test [3], the target named is T3, human TPO-R (transfected Ba/F3 cells) (Homo sapiens, UniProt P40238).
T3 construct: Murine IL-3 dependent Ba/F3 cells were transfected with full length human TPO-R; expressed in transfected cells; host or cells: murine Ba/F3 cells
T3 sequence (P40238 26-635): T2 sequence (P40238 26-635)
The test is described as follows: Thrombopoietin dependent cell proliferation assay (MTT), TPO-R transfected Ba/F3 cells. It is filed as cell-based.
Procedure: Bioactivity of the peptides can be measured using a thrombopoietin dependent cell proliferation assay. Murine IL-3 dependent Ba/F3 cells were transfected with full length human TPO-R. In the absence of IL-3 (WEHI-3 conditioned media), these cells are dependent on TPO for proliferation.
The cells were grown in complete RPMI-10 media, containing 10% WEHI-3 conditioned media, then washed twice in PBS, resuspended in media which lacked WEHI-3 conditioned media, and added to wells containing dilutions of peptide or TPO at 2×10^4 cells/well. The cells were incubated for 48 hours at 37° C. in a humidified 5% CO2 atmosphere and metabolic activity was assayed by the reduction of MTT to formazan, with absorbance at 570 nm measured on an ELISA plate reader.

The subject of test [4] is marrow cells of Balb/C mice (mouse receptor). The test is described as follows: Mouse marrow cells in liquid culture, AChE-positive megakaryocyte outgrowth. Type of test: cell-based. The conditions noted are these: for Response (AChE-positive megakaryocytes): 7 days liquid culture. As to the method: To assess the feasibility of mice as a convenient test species, several in vitro experiments, designed to measure the activity of the test compounds on the mouse receptor, have been done. First, marrow cells, harvested from the femurs of 8 to 9 week one Balb/C mice, were incubated for 7 days in liquid culture with either rhuTPO or various concentrations of the test peptides. At the end of the incubation period, the cultures were concentrated by Cytospin, stained for acetylcholinesterase (AChE, a diagnostic of mouse megakaryocytes), and counted by microscopic analysis. One (X) nM rhuTPO gave rise to the outgrowth of very large (>40 um) non-adherent cells that stain for AChE. These cells appear to be mature megakaryocytes. From an initial seeding of 10^6 total marrow cells/ml (in 50 ml cultures) an estimated 1 to 2×10^6 megakaryocytes developed. This responce to TPO was designated as “maximal”. Control cultures containing no added growth factors produced very few AChE-positive cells. […] This finding was the first evidence that this peptide family is active on the murine receptor. In a second experiment, marrow cells were harvested and cultured in semi-solid medium (methylcellulose) containing either no factors, 1 nM rhuTPO, or 10 uM Peptide A. After 7 days in culture, colonies of large cell (presumed to be megakaryocytes) were counted and grouped into small colonies (3-5 cells) or large colonies (greater than 6 cells). TPO and the test peptides both produced substantially more colonies of both sized than did the negative control cultures.

Test [5] has as its system marrow cells (Mk precursor cell population). Briefly: Mouse marrow cells in semi-solid medium (methylcellulose), colonies of large cells. The conditions noted are these: 1 nM TPO; 7 days in methylcellulose; replicates #1-1 to #2-2. It is filed as cell-based. As to the method: To assess the feasibility of mice as a convenient test species, several in vitro experiments, designed to measure the activity of the test compounds on the mouse receptor, have been done. First, marrow cells, harvested from the femurs of 8 to 9 week one Balb/C mice, were incubated for 7 days in liquid culture with either rhuTPO or various concentrations of the test peptides. At the end of the incubation period, the cultures were concentrated by Cytospin, stained for acetylcholinesterase (AChE, a diagnostic of mouse megakaryocytes), and counted by microscopic analysis. One (X) nM rhuTPO gave rise to the outgrowth of very large (>40 um) non-adherent cells that stain for AChE. These cells appear to be mature megakaryocytes. From an initial seeding of 10^6 total marrow cells/ml (in 50 ml cultures) an estimated 1 to 2×10^6 megakaryocytes developed. This responce to TPO was designated as “maximal”. Control cultures containing no added growth factors produced very few AChE-positive cells. […] In a second experiment, marrow cells were harvested and cultured in semi-solid medium (methylcellulose) containing either no factors, 1 nM rhuTPO, or 10 uM Peptide A. After 7 days in culture, colonies of large cell (presumed to be megakaryocytes) were counted and grouped into small colonies (3-5 cells) or large colonies (greater than 6 cells). […]

Where [6] appears, read: Table 4, cyclized compounds, microphysiometer, read-out: EC50 (nM) Microonys.
[7] abbreviates: Table 4, cyclized compounds, read-out: EC50 (nM) Proliferation.

Values joined by “and” are separate entries in the source; they are usually repeats but may differ in a detail not shown here. Equal entries are not always repeated. Where two headings read alike, the source gives them in different places. Where a SMILES comes first, the peptide text is derived from it.

As for `CC[C@H](C)[C@@H]1NC(=O)[C@H](Cc2c[nH]c3ccccc23)NC(=O)[C@H](CCC(=O)O)NC(=O)[C@H](CCCNC(=N)N)NC(=O)[C@H](CC(C)C)NC(=O)[C@H]([C@@H](C)O)NC(=O)[C@@H]2CCCN2C(=O)CNC(=O)[C@H](CC(=O)O)NC(=O)[C@H](C)NC(=O)[C@@H](N)CSSC[C@H](C(N)=O)NC(=O)[C@H](Cc2ccccc2)NC(=O)[C@H](CO)NC1=O` (HELM PEPTIDE1{C.A.D.G.P.T.L.R.E.W.I.S.F.[dC].[am]}$PEPTIDE1,PEPTIDE1,1:R3-14:R3$$$V2.0), the IC50 (commonly the point on the concentration scale where inhibition reaches its midpoint) in test [1] (Table 4, cyclized compounds) was at most 0.5 µM. Further, the EC50 in test [2] (setting [6]) and in test [3] (setting [7]) was below 200000 nM throughout.

As for `CC[C@H](C)[C@@H]1NC(=O)[C@H](Cc2c[nH]c3ccccc23)NC(=O)[C@H](CCC(=O)O)NC(=O)[C@H](CCCNC(=N)N)NC(=O)[C@H](CC(C)C)NC(=O)[C@H]([C@@H](C)O)NC(=O)[C@@H]2CCCN2C(=O)CNC(=O)[C@H](CC(=O)O)NC(=O)[C@H](C)NC(=O)[C@H](N)C(C)(C)SSC[C@H](C(N)=O)NC(=O)[C@H](Cc2ccccc2)NC(=O)[C@H](CO)NC1=O` (HELM PEPTIDE1{[CC(C)(S[*:3])[C@@H](N)C(=O)[*:2]].A.D.G.P.T.L.R.E.W.I.S.F.[dC].[am]}$PEPTIDE1,PEPTIDE1,1:R3-14:R3$$$V2.0), the IC50 in test [1] (Table 4, cyclized compounds) was at most 0.5 µM. In addition, the EC50 in test [2] (setting [6]) and in test [3] (setting [7]) was below 200000 nM in each case.

As for `CC[C@H](C)[C@@H]1NC(=O)[C@H](Cc2c[nH]c3ccccc23)NC(=O)[C@H](CCC(=O)O)NC(=O)[C@H](CCCNC(=N)N)NC(=O)[C@H](CC(C)C)NC(=O)[C@H]([C@@H](C)O)NC(=O)[C@@H]2CCCN2C(=O)CNC(=O)[C@H](CC(=O)O)NC(=O)[C@H](C)NC(=O)[C@@H](N)CCSSCC[C@@H](C(N)=O)NC(=O)[C@H](Cc2ccccc2)NC(=O)[C@H](CO)NC1=O` (HELM PEPTIDE1{[N[C@@H](CCS[*:3])C(=O)[*:2]].A.D.G.P.T.L.R.E.W.I.S.F.[O=C([C@H](CCS[*:3])N[*:1])[*:2]].[am]}$PEPTIDE1,PEPTIDE1,1:R3-14:R3$$$V2.0), the IC50 in test [1] (Table 4, cyclized compounds) was at most 0.5 µM. Also, the EC50 in test [2] (setting [6]) and in test [3] (setting [7]) was below 200000 nM each time.

With `CC[C@H](C)[C@@H]1NC(=O)[C@H](Cc2c[nH]c3ccccc23)NC(=O)[C@H](CCC(=O)O)NC(=O)[C@H](CCCNC(=N)N)NC(=O)[C@H](CC(C)C)NC(=O)[C@H]([C@@H](C)O)NC(=O)[C@@H]2CCCN2C(=O)CNC(=O)[C@H](CC(=O)O)NC(=O)[C@H](C)NC(=O)CSCC[C@@H](C(N)=O)NC(=O)[C@H](Cc2ccccc2)NC(=O)[C@H](CO)NC1=O` (HELM PEPTIDE1{[O=C(C[*:3])[*:2]].A.D.G.P.T.L.R.E.W.I.S.F.[O=C([C@H](CCS[*:3])N[*:1])[*:2]].[am]}$PEPTIDE1,PEPTIDE1,1:R3-14:R3$$$V2.0), the IC50 in test [1] (Table 4, cyclized compounds) was at most 0.5 µM. The EC50 in test [2] (setting [6]) and in test [3] (setting [7]) was below 200000 nM each time.

In the case of `CC[C@H](C)[C@@H]1NC(=O)[C@H](Cc2c[nH]c3ccccc23)NC(=O)[C@H](CCC(=O)O)NC(=O)[C@H](CCCNC(=N)N)NC(=O)[C@H](CC(C)C)NC(=O)[C@H]([C@@H](C)O)NC(=O)[C@@H]2CCCN2C(=O)CNC(=O)[C@H](CC(=O)O)NC(=O)[C@H](C)NC(=O)CSC(C)(C)[C@@H](C(N)=O)NC(=O)[C@H](Cc2ccccc2)NC(=O)[C@H](CO)NC1=O` (HELM PEPTIDE1{[O=C(C[*:3])[*:2]].A.D.G.P.T.L.R.E.W.I.S.F.[Pen].[am]}$PEPTIDE1,PEPTIDE1,1:R3-14:R3$$$V2.0), in test [1] (Table 4, cyclized compounds), the IC50 is at most 200 µM. Besides, the EC50 in test [2] (setting [6]) and in test [3] (setting [7]) was below 200000 nM each time.

Regarding `CC[C@H](C)[C@@H]1NC(=O)[C@H](Cc2c[nH]c3ccccc23)NC(=O)[C@H](CCC(=O)O)NC(=O)[C@H](CCCNC(=N)N)NC(=O)[C@H](CC(C)C)NC(=O)[C@H]([C@@H](C)O)NC(=O)[C@@H]2CCCN2C(=O)CNC(=O)[C@H](CC(=O)O)NC(=O)[C@H](C)NC(=O)[C@@H](N)C(C)(C)SSC[C@@H](C(N)=O)NC(=O)[C@H](Cc2ccccc2)NC(=O)[C@H](CO)NC1=O` (HELM PEPTIDE1{[Pen].A.D.G.P.T.L.R.E.W.I.S.F.C.[am]}$PEPTIDE1,PEPTIDE1,1:R3-14:R3$$$V2.0), in test [1] (Table 4, cyclized compounds), the IC50 was at most 0.5 µM. Also, the EC50 in test [2] (setting [6]) and in test [3] (setting [7]) was below 500 nM each time.

For the compound `CC[C@H](C)[C@@H]1NC(=O)[C@H](Cc2c[nH]c3ccccc23)NC(=O)[C@H](CCC(=O)O)NC(=O)[C@H](CCCNC(=N)N)NC(=O)[C@H](CC(C)C)NC(=O)[C@H]([C@@H](C)O)NC(=O)[C@@H]2CCCN2C(=O)CNC(=O)[C@H](CC(=O)O)NC(=O)[C@H](C)NC(=O)[C@@H](N)CSSC[C@@H](C(N)=O)NC(=O)[C@H](CC2CCCCC2)NC(=O)[C@H](CO)NC1=O` [F-CHA] (HELM PEPTIDE1{C.A.D.G.P.T.L.R.E.W.I.S.[Cha].C.[am]}$PEPTIDE1,PEPTIDE1,1:R3-14:R3$$$V2.0; N-terminus and C-terminus assumed), the IC50 in test [1] (Table 5) is at most 0.5 µM. Besides, the EC50 in test [2] (Table 5, value in parentheses, read-out: EC50 (nM), microphysiometer results given in parentheses) was below 500 nM; in test [3] (Table 5, substitutions in cyclized compound, read-out: EC50 (nM) Cell Prolif.), below 500 nM.

With “S.A. alone: streptavidin alone [reference compound]”, the “Response (AChE-positive megakaryocytes)” value in test [4] (1000 nM (putative 1:4 complex), maximal = 25–30% AChE staining cells) was “none”.

For the compound “TPO: recombinant human TPO (thrombopoietin)”, the “Response (AChE-positive megakaryocytes)” value in test [4] (1 nM) is recorded as ““maximal””. For the same compound, the megakaryocytes developed in test [4] (One (X) nM rhuTPO, initial seeding 10^6 total marrow cells/ml (50 ml cultures), 7 days) is 1 to 2×10^6 megakaryocytes. For the same compound, in test [5], the “colonies of 3–5 large cells” value is 15 and 12 and 16 and 13; the “colonies of 6–12 large cells” value was 6 and 1 and 8 and 3.
